Laboratory results taken from ChEMBL document CHEMBL1641487, “Aspergilones A and B, two benzylazaphilones with an unprecedented carbon skeleton from the gorgonian-derived fungus Aspergillus sp” (Bioorg Med Chem Lett, 2011).
In brackets after ≈: the same amount, converted by molar mass.

Experiments:
MCF7 = assay: Cytotoxicity against human MCF7 cells; assay type: functional, cell-based
HL-60 = assay: Cytotoxicity against human HL60 cells; assay type: functional, cell-based
A549 = assay: Cytotoxicity against human A549 cells; assay type: functional, cell-based
Amphibalanus amphitrite = assay: Antifouling activity against Balanus amphitrite assessed as larval settlement barnacle; assay type: functional, organism-based

Structure (SMILES) | IC50 (MCF7) | IC50 (HL-60) | IC50 (A549) | EC50 (Amphibalanus amphitrite)
CC1=C2C(=CO[C@@H](C)[C@@H]2C)C(=O)C(Cc2ccccc2)(Cc2ccccc2)C1=O [ASPERGILONE A] | 25 µg/mL (≈ 64.7 µM) | 3.2 µg/mL (≈ 8.28 µM) | 37 µg/mL (≈ 95.7 µM) | 25 µg/mL (≈ 64.7 µM)
CC1=C2C(=CO[C@@H](C)[C@@H]2C)C(=O)[C@@](Cc2ccccc2)(C[C@]2(Cc3ccccc3)C(=O)C3=CO[C@@H](C)[C@H](C)C3=C(C)C2=O)C1=O [ASPERGILONE B] | > 50 µg/mL | > 50 µg/mL | > 50 µg/mL | –
